# Laboratory results published in US3966728A, “Benzoguanamine derivatives” (Nippon Shinyaku Co., Ltd., priority 1974, dated 1976).
# What was measured:
# [1] = Acute toxicity (mouse); conditions: in vivo, ip
# From the text: (§1) Data of the anti-ulcerative activity (Shay rat) and the acute toxicity (mouse) obtained with respect to several typical instances of compounds included in the scope of this invention are shown in Table 1.
# [2] = tested on: Ulcer (Shay rat); assay: Anti-ulcerative activity (Shay rat); format: in vivo; conditions: ip, read-out: % Inhibition of Ulcer Index; for inhibition in vivo at 10 mg/kg: 10 mg/Kg i.p.; for inhibition in vivo at 20 mg/kg: 20 mg/Kg i.p.
# From the text: as §1
Structure (SMILES),LD50 [1] [mg/kg],inhibition in vivo at 10 mg/kg [2] [%],inhibition in vivo at 20 mg/kg [2] [%]
Nc1nc(N)nc(-c2ccc(Cl)cc2Cl)n1 [Example 7],~300,77,100
Nc1nc(N)nc(-c2cc(Br)ccc2Cl)n1 [Example 6],> 1000,35,86
Nc1nc(N)nc(-c2cc(Cl)ccc2F)n1 [Example 2],,,89
Nc1nc(N)nc(-c2cc(F)ccc2Br)n1 [Example 4],~500,,78
Nc1nc(N)nc(-c2ccc(Cl)cc2Br)n1 [Example 8],,76,96
Nc1nc(N)nc(-c2cc(Br)ccc2Br)n1 [Example 5],~850,,100
Nc1nc(N)nc(-c2cccc(Cl)c2Cl)n1 [Example 10],,,76
Nc1nc(N)nc(-c2cc(Cl)ccc2Br)n1 [Example 3],~1000,33,80
Nc1nc(N)nc(-c2cc(Cl)ccc2Cl)n1 [Example 1],~1600,49,100
Nc1nc(N)nc(-c2cc(Cl)cc(Cl)c2)n1 [Example 12],,,80
Nc1nc(N)nc(-c2c(Cl)cccc2Cl)n1 [Example 11],,,54
